According to the NIST ThermoML archive (doi:10.1021/je100991y):
Numbers after ± are expanded uncertainties.

Legend:
[1] = refractive index (Na D-line) (dimensionless); conditions: 101.33 kPa, Liquid, Standard Abbe refractometry
[2] = refractive index (Na D-line) (dimensionless); wn = mass fraction of the nth substance listed; conditions: 95 kPa, Liquid, Standard Abbe refractometry

## CCOP(=O)([O-])OCC.CCn1cc[n+](C)c1 [1-ethyl-3-methylimidazolium diethyl phosphate]
[1]; 298.2 K
  refractive index: 1.4733 ± 0.0006
[1]; 313.2 K
  refractive index: 1.4691 ± 0.0006

## CCCCCCCCCCCC [dodecane]
[1]; 298.2 K
  refractive index: 1.4196 ± 0.0006
[1]; 313.2 K
  refractive index: 1.4131 ± 0.0006

## Cc1cccc2c1sc1c(C)cccc12 [4,6-dimethyldibenzo[b,d]thiophene] + CCCCCCCCCCCC
[2]; 298.2 K, w1 = 0.0037
  refractive index: 1.4201 ± 0.0006
[2]; 298.2 K, w1 = 0.0062
  refractive index: 1.4206 ± 0.0006
[2]; 298.2 K, w1 = 0.0089
  refractive index: 1.421 ± 0.0006
[2]; 313.2 K, w1 = 0.0037
  refractive index: 1.4137 ± 0.0006
[2]; 313.2 K, w1 = 0.0062
  refractive index: 1.4141 ± 0.0006
[2]; 313.2 K, w1 = 0.0089
  refractive index: 1.4146 ± 0.0006

## CCCCCCCCCCCC [dodecane] + Cc1cccc2c1sc1c(C)cccc12
[2]; 298.2 K, w2 = 0
  refractive index: 1.4196 ± 0.0006
[2]; 313.2 K, w2 = 0
  refractive index: 1.4131 ± 0.0006

## CCOS(=O)(=O)[O-].CCn1cc[n+](C)c1 [1-ethyl-3-methylimidazolium ethyl sulfate]
[1]; 298.2 K
  refractive index: 1.4789 ± 0.0011
[1]; 313.2 K
  refractive index: 1.4745 ± 0.0011
